# In patent publication US8465788B2, “Arabinoxylans for modulating the barrier function of the intestinal surface” (BioActor B.V., priority 2008, dated 2013):
# Legend:
# intestinal bacteria = assay: Prebiotic Index (gut lumen) and Prebiotic Attachment Index (gut wall mucus) in TWINSHIME; assay type: cell-based, human; conditions: from day 23, TWINSHIME
# Description: FIG. 4 Prebiotic Index (PI) and Prebiotic Attachment Index (PAI) before, during and after treatment with respectively inulin and AX. The X-axis indicates experiment days during the TWINSHIME run. Inulin or AX were administered to the TWINSHIME from day 2 until day 23.
# In addition to the above-mentioned measurements, experiments were performed to quantify the attachment of intestinal bacteria to the mucus layer at the gut wall. As attachment to the gut wall is the first stage of interaction between bacteria and the human host (e.g. immunomodulation, pathogenesis), characterization of the microbial ecology at the site of the gut wall and assessment of changes in this community due to a prebiotic treatment is very important to evaluate the final health effects of a prebiotic treatment. Finally, the effect of the prebiotic treatment with inulin or AX on the composition of the microbial community in both the gut lumen and at the gut wall can be expressed quantitatively in specific indices.
# The Prebiotic Index (PI) describes the increase in the gut lumen in beneficial bacteria, relative to harmful bacteria due to the prebiotic treatment. PI=(Bif/Total)+(Lac/Total)−(Ecol/Total)−(Clos/Total) […]
# For both indices, an increase in the quantitative value is evaluated as positive, with the degree of increase as a parameter for success of the prebiotic treatment (FIG. 4).
# bifidobacteria = assay: DGGE fingerprint of the bifidobacterial community in the cecum of human-microbiota associated rats; assay type: in vivo, rat; conditions: 10% in diet, three weeks
# Description: FIG. 3 DGGE (Denaturing Gradient Gel Electrophoresis) fingerprint profiles of the community of bifidobacteria in the cecum of three groups of human-microbiota associated rats (n=8/group) treated for 3 weeks with a control diet, inulin (10%) or AX (10%). The profiles were obtained after amplification of the bifidobacterial community using group-specific PCR primers.
# Three groups of eight rats with human associated microbiotia were used in the experiment: • Control • Inulin • AX
# During three weeks animals were treated with either 10% inulin, AX or a control diet (=5% sugar+5% cornstarch) in order to compare the prebiotic effects of both oligosaccharides. At the end of the three weeks, the animals were euthanized.
# In addition to this, the composition of the bifidobacterial community in the cecum was monitored by Denaturing Gradient Gel Electrophoresis (DGGE) (FIG. 3). […] Bifidobacterium longum is one of most important inhabitants in the human body. This bacterium is very helpful because it maintains a normal digestive tract, inhibits the growth of harmful bacteria, and also boosts the immune system (Reinert, Birgit. “Friendly tenants in the human gut: The genome of B. longum”. 2002. Genome News Network).
# [1] = test system: fecal microbial community; assay: SHIME in vitro gastrointestinal model: short chain fatty acid (A, P, B) ratios; assay type: cell-based, human; conditions: for A ratio (A/(A + P + B)), Ascending colon / A ratio, Descending colon / A ratio, Transverse colon / B ratio, Ascending colon / B ratio, Descending colon / B ratio, Transverse colon / P ratio, Ascending colon / P ratio, Descending colon / P ratio, Transverse colon: TWINSHIME
# Description: In Vitro Gastrointestinal Model—the Simulator of the Human Intestinal Microbial Ecosystem (SHIME)
# The reactor setup was adapted from the SHIME, representing the gastrointestinal tract of the adult human, as described by Molly et al. (Molly, Woestyne et al. 1993). The SHIME consists of a succession of five reactors simulating the different parts of the human gastrointestinal tract. The first two reactors are of the fill-and-draw principle to simulate different steps in food uptake and digestion, with peristaltic pumps adding a defined amount of SHIME feed (140 mL 3×/day) and pancreatic and bile liquid (60 mL 3×/day), respectively to the stomach (V1) and duodenum (V2) compartment and emptying the respective reactors after specified intervals. The last three compartments are continuously stirred reactors with constant volume and pH control. Retention time and pH of the different vessels are chosen in order to resemble in vivo conditions in the different parts of the gastrointestinal tract. The overall residence time of the last three vessels, simulating the large intestine, is 76 h. Upon inoculation with fecal microbiota, these reactors simulate the ascending (V3), transverse (V4) and descending (V5) colon. Inoculum preparation, retention time, pH, temperature settings and reactor feed composition were previously described by Possemiers et al. (Possemiers, Verthe et al. 2004). In the comparison with of AX with inulin, two systems with identical environmental conditions (identical pH and temperature control) were run in parallel.
# For the evaluation of the 2 prebiotics, the colon compartments of the SHIME reactors were first inoculated with an isolated fecal microbial community of a selected healthy volunteer. The SHIME reactor was operated under nominal conditions to stabilize the microbial community and let it adapt its metabolic activity and community composition to the conditions prevailing in the respective colon compartments. This stabilization period lasted for 3 weeks.
# During the basal period, the SHIME reactor was operated under nominal conditions. Parameters such as short chain fatty acid (SCFA) production and ammonium production were determined 3 times/week. The results of these analyses served as the background values to be used to compare the measured parameters from the treatment period. The basal period lasted 2 weeks.
# During the treatment period, the SHIME reactor was operated under nominal conditions, but with a modified diet containing a lower amount of starch in the medium compared to that of the basal period. In parallel, the ascending colon compartment of the first SHIME received inulin, whereas the second SHIME received AX. Both compounds were added in low doses of 1.5 g/d. SCFA and ammonium production were determined 3 times/week. This treatment period typically lasts for 3 weeks.
# During the washout period, the SHIME reactor was operated under nominal conditions, with the initial diet. SCFA and ammonium production were determined 3 times/week. Analysis of these parameters allowed to assess whether possible changes from the treatment period normalize again to the levels of the basal period.
# As acetate (A), propionate (P) and butyrate (B) are the main fatty acids produced by intestinal bacteria, the results are expressed as the ratio of each fatty acid to the sum of the 3 fatty acids.
substance,measurement,setting,value
inulin,Prebiotic Attachment Index (PAI) after stopping the administration,intestinal bacteria,returned back to baseline
same,Prebiotic Index (PI) after stopping the administration,intestinal bacteria,returned back to baseline
same,composition of the bifidobacterial community in the cecum (DGGE),bifidobacteria,little changes
same,prebiotic effect (relative increase in P and B compared to A) in the colon compartments,"[1]; SHIME, 1.5 g/d",only minor effects were observed in one colon compartment
same,"A ratio (A/(A + P + B)), Ascending colon","[1]; treatment period, 1.5 g/d",0.45
same,"A ratio, Descending colon","[1]; treatment period, 1.5 g/d",0.48
same,"A ratio, Transverse colon","[1]; treatment period, 1.5 g/d",0.43
same,"B ratio, Ascending colon","[1]; treatment period, 1.5 g/d",0.27
same,"B ratio, Descending colon","[1]; treatment period, 1.5 g/d",0.24
same,"B ratio, Transverse colon","[1]; treatment period, 1.5 g/d",0.26
same,"P ratio, Ascending colon","[1]; treatment period, 1.5 g/d",0.29
same,"P ratio, Descending colon","[1]; treatment period, 1.5 g/d",0.28
same,"P ratio, Transverse colon","[1]; treatment period, 1.5 g/d",0.31
same,"A ratio (A/(A + P + B)), Ascending colon",[1]; wash-out period,0.45
same,"A ratio, Descending colon",[1]; wash-out period,0.53
same,"A ratio, Transverse colon",[1]; wash-out period,0.44
same,"B ratio, Ascending colon",[1]; wash-out period,0.20
same,"B ratio, Descending colon",[1]; wash-out period,0.19
same,"B ratio, Transverse colon",[1]; wash-out period,0.21
same,"P ratio, Ascending colon",[1]; wash-out period,0.35
same,"P ratio, Descending colon",[1]; wash-out period,0.28
same,"P ratio, Transverse colon",[1]; wash-out period,0.35
